Assay in all cases: relative viability (nuclei count vs DMSO), 5 days (fraction); higher = more cells survive
Compound in the test “TGX 221 + OSI-027”: CC1=CN2C(=O)C=C(N=C2C(=C1)C(C)NC3=CC=CC=C3)N4CCOCC4 [TGX 221] + COc1cccc2cc(-c3nc([C@H]4CC[C@H](C(=O)O)CC4)n4ncnc(N)c34)[nH]c12 [OSI-027] (partner 0.5 µM)
An outline of the steps: (§1)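 Dosing by pin tool came one day after lung cancer cell lines were seeded in 1536-well plates, using either one drug or a fixed anchor-drug dose plus five library-drug doses (not always all listed) in √10 steps. After 5 days, nuclei were counted on 4× images. Relative viability is treated-well nuclei count divided by vehicle-well nuclei count, and values are medians of duplicate plates.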

Compound in test [1]: O=C(CCCCCCNC(=O)c1cnc(N(c2ccccc2)c2ccccc2)nc1)NO [Ricolinostat] + CS(=O)(=O)N1CCN(Cc2cc3nc(-c4cccc5[nH]ncc45)nc(N4CCOCC4)c3s2)CC1 [Pictilisib] (partner 1 µM)
An outline of the steps: as §1

Compound in test [2]: O=C(CCCCCCNC(=O)c1cnc(N(c2ccccc2)c2ccccc2)nc1)NO [Ricolinostat] + CC(=O)c1c(C)c2cnc(Nc3ccc(N4CCNCC4)cn3)nc2n(C2CCCC2)c1=O [Palbociclib] (partner 0.5 µM)
An outline of the steps:
as §1

Compound in the test “Ricolinostat + Foretinib”: O=C(CCCCCCNC(=O)c1cnc(N(c2ccccc2)c2ccccc2)nc1)NO [Ricolinostat] + COc1cc2c(Oc3ccc(NC(=O)C4(C(=O)Nc5ccc(F)cc5)CC4)cc3F)ccnc2cc1OCCCN1CCOCC1 [Foretinib] (partner 0.25 µM)
An outline of the steps:
as §1

In the case of NCI-H1734, the relative viability was 0.57 with TGX 221 + OSI-027 (first compound 0.08 µM); 0.579 in the test with TGX 221 + OSI-027 (first compound 0.253 µM); 0.621 with TGX 221 + OSI-027 (first compound 0.8 µM); 0.527 in the test with TGX 221 + OSI-027 (first compound 2.53 µM); 0.532 with TGX 221 + OSI-027 (first compound 8 µM); 0.371 in test [1] (first compound 0.08 µM). Also, the relative viability in test [1] (first compound 0.253 µM) was determined as 0.467; in test [1] (first compound 0.8 µM), 0.495; in test [1] (first compound 2.53 µM), 0.402; in test [2] (first compound 0.08 µM), 0.343; in test [2] (first compound 0.253 µM), 0.35; in test [2] (first compound 0.8 µM), 0.4. Also, the relative viability came to 0.389 in test [2] (first compound 2.53 µM); 0.728 with Ricolinostat + Foretinib (first compound 0.08 µM); 0.85 in the test with Ricolinostat + Foretinib (first compound 0.253 µM); 0.915 with Ricolinostat + Foretinib (first compound 0.8 µM); 0.926 with Ricolinostat + Foretinib (first compound 2.53 µM).
With NCI-H1755, the relative viability in the test with TGX 221 + OSI-027 (first compound 0.08 µM) was 0.685; in the test with TGX 221 + OSI-027 (first compound 0.253 µM) it was 0.728; with TGX 221 + OSI-027 (first compound 0.8 µM), 0.605; with TGX 221 + OSI-027 (first compound 2.53 µM) it was 0.657; with TGX 221 + OSI-027 (first compound 8 µM) it was 0.697; in test [1] (first compound 0.08 µM), 0.278. Besides, the relative viability in test [1] (first compound 0.8 µM) came to 0.402; in test [1] (first compound 2.53 µM), 0.312; in test [2] (first compound 0.08 µM) it was 0.463; in test [2] (first compound 0.253 µM), 0.458; in test [2] (first compound 0.8 µM) it was 0.493; in test [2] (first compound 2.53 µM) it was 0.453. Moreover, the relative viability came out at 0.853 in the test with Ricolinostat + Foretinib (first compound 0.08 µM), 0.925 with Ricolinostat + Foretinib (first compound 0.253 µM), 0.903 with Ricolinostat + Foretinib (first compound 0.8 µM) and 0.91 with Ricolinostat + Foretinib (first compound 2.53 µM).
Turning to NCI-H1793, the relative viability with TGX 221 + OSI-027 (first compound 0.08 µM) stood at 0.249; with TGX 221 + OSI-027 (first compound 0.253 µM), 0.237; in the test with TGX 221 + OSI-027 (first compound 0.8 µM), 0.248; with TGX 221 + OSI-027 (first compound 2.53 µM), 0.183; with TGX 221 + OSI-027 (first compound 8 µM), 0.218; in test [1] (first compound 0.253 µM), 0.31. Also, the relative viability in test [1] (first compound 0.8 µM) turned out to be 0.311; in test [1] (first compound 2.53 µM), 0.298; in test [2] (first compound 0.08 µM), 0.306; in test [2] (first compound 0.253 µM) it was 0.31; in test [2] (first compound 0.8 µM) it was 0.281; in test [2] (first compound 2.53 µM), 0.329. Also, the relative viability was found to be 0.737 in the test with Ricolinostat + Foretinib (first compound 0.253 µM), 0.741 in the test with Ricolinostat + Foretinib (first compound 0.8 µM) and 0.876 in the test with Ricolinostat + Foretinib (first compound 2.53 µM).
Regarding NCI-H1915, the relative viability amounted to 0.575 with TGX 221 + OSI-027 (first compound 0.08 µM); 0.601 with TGX 221 + OSI-027 (first compound 0.253 µM); 0.63 in the test with TGX 221 + OSI-027 (first compound 0.8 µM); 0.472 with TGX 221 + OSI-027 (first compound 2.53 µM); 0.619 with TGX 221 + OSI-027 (first compound 8 µM); 0.852 in test [1] (first compound 0.08 µM). Besides, the relative viability turned out to be 0.928 in test [1] (first compound 0.253 µM); 0.869 in test [1] (first compound 0.8 µM); 0.729 in test [1] (first compound 2.53 µM); 0.488 in test [2] (first compound 0.08 µM); 0.521 in test [2] (first compound 0.253 µM); 0.474 in test [2] (first compound 0.8 µM). For the same cell line, the relative viability came to 0.419 in test [2] (first compound 2.53 µM); 1.07 with Ricolinostat + Foretinib (first compound 0.08 µM); 1.03 with Ricolinostat + Foretinib (first compound 0.253 µM); 1.07 with Ricolinostat + Foretinib (first compound 0.8 µM); 1.03 in the test with Ricolinostat + Foretinib (first compound 2.53 µM).
Take NCI-H1944: the relative viability worked out at 0.377 with TGX 221 + OSI-027 (first compound 0.08 µM); 0.39 with TGX 221 + OSI-027 (first compound 0.253 µM); 0.397 with TGX 221 + OSI-027 (first compound 0.8 µM); 0.409 with TGX 221 + OSI-027 (first compound 2.53 µM); 0.388 with TGX 221 + OSI-027 (first compound 8 µM); 0.285 in test [1] (first compound 0.08 µM). In addition, the relative viability in test [1] (first compound 0.253 µM) turned out to be 0.347; in test [1] (first compound 0.8 µM), 0.321; in test [1] (first compound 2.53 µM), 0.289; in test [2] (first compound 0.08 µM), 0.332; in test [2] (first compound 0.253 µM), 0.307; in test [2] (first compound 0.8 µM), 0.309. Further, the relative viability in test [2] (first compound 2.53 µM) turned out to be 0.297; with Ricolinostat + Foretinib (first compound 0.08 µM), 0.828; with Ricolinostat + Foretinib (first compound 0.253 µM) it was 0.835; in the test with Ricolinostat + Foretinib (first compound 0.8 µM), 0.689; with Ricolinostat + Foretinib (first compound 2.53 µM) it was 0.641.
Turning to NCI-H1975, the relative viability with TGX 221 + OSI-027 (first compound 0.08 µM) was determined as 0.694; in the test with TGX 221 + OSI-027 (first compound 0.253 µM) it was 0.676; with TGX 221 + OSI-027 (first compound 0.8 µM) it was 0.653; in the test with TGX 221 + OSI-027 (first compound 2.53 µM), 0.528; in the test with TGX 221 + OSI-027 (first compound 8 µM), 0.555; in test [1] (first compound 0.08 µM), 0.283. For the same cell line, the relative viability in test [1] (first compound 0.253 µM) was found to be 0.309; in test [1] (first compound 2.53 µM) it was 0.231; in test [2] (first compound 0.08 µM), 0.709; in test [2] (first compound 0.253 µM), 0.607; in test [2] (first compound 0.8 µM), 0.607; in test [2] (first compound 2.53 µM) it was 0.471. For the same cell line, the relative viability in the test with Ricolinostat + Foretinib (first compound 0.08 µM) was 1.04; with Ricolinostat + Foretinib (first compound 0.253 µM) it was 0.975; in the test with Ricolinostat + Foretinib (first compound 0.8 µM), 0.822; with Ricolinostat + Foretinib (first compound 2.53 µM), 0.917.
